Assay results as given in publication PMC7835237, “Dual mechanism β-amino acid polymers promoting cell adhesion” (Nature Communications, 2021).

What was measured:
[1] = system: MC3T3-E1 preosteoblast cells; experiment: Cell adhesion in a serum-free environment with enzyme-pretreated cells; type: cell-based, mouse; parameters: unit not given here; details: serum-free medium, 1 day
Method: Cells were detached and washed thrice with a serum-free medium. In order to examine the impact of cell membrane-tethered proteins on cell adhesion in a serum-free environment, cells were suspended and incubated at 37 °C for 20 min in 3 mL serum-free α-MEM medium that contains 0.307 U/mL plasmin, 10 U/mL collagenase (types I and II), 2 U/mL heparinase (types I, II, and III), or 10 U/mL hyaluronidase, respectively. The protease-treated cells were washed and suspended in a serum-free α-MEM to a final concentration of 1.5 × 10^5 cells/mL. An aliquot of 10 μL this cell suspension was added to each individual well (formed by a 50-well silicon coverslip on the top of a glass slide) that has bottom surface modified with DM50CO50, RGD, or KRSR, respectively, and then the slide was placed in a petri dish for incubation at 37 °C for 2 h for cell attachment. Then additional fresh medium was added into the petri dish to immerse the entire slide and the whole dish was incubated for 1 day. After removing the medium, cells were stained with a live/dead staining solution and the fluorescent images were captured under a microscope (Nikon Eclipse Ti-S, Japan) at different locations of each well. The collected images were analyzed using Image-pro plus software.

[2] = system: MC3T3-E1 preosteoblast cells; experiment: Cell spreading area on modified surfaces (immunofluorescence analysis of cell morphology); type: cell-based, mouse
Method: The degree of cell spreading on a functionalized glass slide was measured by immunofluorescence analysis. After culture medium was removed, the slide was washed with PBS and then cells on the slide were fixed with 4% paraformaldehyde for 20 min. The slide was washed with PBS thrice and incubated for 5 min with 0.4% triton-X in PBS. Subsequently, the slide was washed with PBS thrice, followed by blocking with 3% bovine serum albumin (BSA) in PBS for 1 h at rt and then incubated with Alexa Fluor-555-conjugated anti-vinculin antibody (1:300 in PBS) overnight at 4 °C. The slide was washed with PBS thrice and incubated for 2 h with FITC-phalloidin (1:200 in PBS) and 4′-6-diamidino-2-phenylindole (DAPI) (5 μg/mL) for 10 min. The slide was washed with PBS thrice and its fluorescent images were collected on a confocal microscope (Nikon A1R, Japan).

[3] = Control: untreated cells, value 1 of n = 9
[4] = Control: untreated cells, value 2 of n = 9
[5] = Control: untreated cells, value 3 of n = 9
[6] = Control: untreated cells, value 4 of n = 9
[7] = Control: untreated cells, value 5 of n = 9
[8] = Control: untreated cells, value 6 of n = 9
[9] = Control: untreated cells, value 7 of n = 9
[10] = Control: untreated cells, value 8 of n = 9
[11] = Control: untreated cells, value 9 of n = 9
[12] = cells pretreated with Collagenase 10 U/mL, value 1 of n = 9
[13] = cells pretreated with Collagenase 10 U/mL, value 2 of n = 9
[14] = cells pretreated with Collagenase 10 U/mL, value 3 of n = 9
[15] = cells pretreated with Collagenase 10 U/mL, value 4 of n = 9
[16] = cells pretreated with Collagenase 10 U/mL, value 5 of n = 9
[17] = cells pretreated with Collagenase 10 U/mL, value 6 of n = 9
[18] = cells pretreated with Collagenase 10 U/mL, value 7 of n = 9
[19] = cells pretreated with Collagenase 10 U/mL, value 8 of n = 9
[20] = cells pretreated with Collagenase 10 U/mL, value 9 of n = 9
[21] = cells pretreated with Heparinase 2 U/mL, value 1 of n = 9
[22] = cells pretreated with Heparinase 2 U/mL, value 2 of n = 9
[23] = cells pretreated with Heparinase 2 U/mL, value 3 of n = 9
[24] = cells pretreated with Heparinase 2 U/mL, value 4 of n = 9
[25] = cells pretreated with Heparinase 2 U/mL, value 5 of n = 9
[26] = cells pretreated with Heparinase 2 U/mL, value 6 of n = 9
[27] = cells pretreated with Heparinase 2 U/mL, value 7 of n = 9
[28] = cells pretreated with Heparinase 2 U/mL, value 8 of n = 9
[29] = cells pretreated with Heparinase 2 U/mL, value 9 of n = 9
[30] = cells pretreated with Hyaluronidase 10 U/mL, value 1 of n = 9
[31] = cells pretreated with Hyaluronidase 10 U/mL, value 2 of n = 9
[32] = cells pretreated with Hyaluronidase 10 U/mL, value 3 of n = 9
[33] = cells pretreated with Hyaluronidase 10 U/mL, value 4 of n = 9
[34] = cells pretreated with Hyaluronidase 10 U/mL, value 5 of n = 9
[35] = cells pretreated with Hyaluronidase 10 U/mL, value 6 of n = 9
[36] = cells pretreated with Hyaluronidase 10 U/mL, value 7 of n = 9
[37] = cells pretreated with Hyaluronidase 10 U/mL, value 8 of n = 9
[38] = cells pretreated with Hyaluronidase 10 U/mL, value 9 of n = 9
[39] = cells pretreated with Plasmin 0.307 U/mL, value 1 of n = 9
[40] = cells pretreated with Plasmin 0.307 U/mL, value 2 of n = 9
[41] = cells pretreated with Plasmin 0.307 U/mL, value 3 of n = 9
[42] = cells pretreated with Plasmin 0.307 U/mL, value 4 of n = 9
[43] = cells pretreated with Plasmin 0.307 U/mL, value 5 of n = 9
[44] = cells pretreated with Plasmin 0.307 U/mL, value 6 of n = 9
[45] = cells pretreated with Plasmin 0.307 U/mL, value 7 of n = 9
[46] = cells pretreated with Plasmin 0.307 U/mL, value 8 of n = 9
[47] = cells pretreated with Plasmin 0.307 U/mL, value 9 of n = 9

With KRSRGYC as the substance, how does the “Cell density (figure 6c)” value [1, 3] read?
Its value is 96.

And the “Cell spreading area (figure 6b)” value [1, 3]?
The value was 2152.

And the “Cell density (figure 6c)” value [1, 4]?
The value was 95.

What about the “Cell spreading area (figure 6b)” value [1, 4] of the same substance?
Its value is 2263.

And the “Cell density (figure 6c)” value [1, 5]?
The value was 98.

What about the “Cell spreading area (figure 6b)” value [1, 5] of the same substance?
The value was 2236.

And the “Cell density (figure 6c)” value [1, 6]?
The value was 96.

What about the “Cell spreading area (figure 6b)” value [1, 6] of the same substance?
The value was 2265.

And the “Cell density (figure 6c)” value [1, 7]?
The value was 96.

And the “Cell spreading area (figure 6b)” value [1, 7]?
Its value is 2150.

And the “Cell density (figure 6c)” value [1, 8]?
Its value is 90.

And the “Cell spreading area (figure 6b)” value [1, 8]?
The value was 2154.

What about the “Cell density (figure 6c)” value [1, 9] of the same substance?
Its value is 96.

And the “Cell spreading area (figure 6b)” value [1, 9]?
The value was 2365.

And the “Cell density (figure 6c)” value [1, 10]?
Its value is 89.

What about the “Cell spreading area (figure 6b)” value [1, 10] of the same substance?
Its value is 2263.

And the “Cell density (figure 6c)” value [1, 11]?
The value was 98.

What about the “Cell spreading area (figure 6b)” value [1, 11] of the same substance?
Its value is 2153.

And the “Cell density (figure 6c)” value [1, 12]?
Its value is 92.

What about the “Cell spreading area (figure 6b)” value [1, 12] of the same substance?
Its value is 2270.3.

What about the “Cell density (figure 6c)” value [1, 13] of the same substance?
Its value is 92.

What about the “Cell spreading area (figure 6b)” value [1, 13] of the same substance?
Its value is 2036.

What about the “Cell density (figure 6c)” value [1, 14] of the same substance?
Its value is 89.

What about the “Cell spreading area (figure 6b)” value [1, 14] of the same substance?
Its value is 2011.4.

What about the “Cell density (figure 6c)” value [1, 15] of the same substance?
The value was 88.

What about the “Cell spreading area (figure 6b)” value [1, 15] of the same substance?
The value was 2163.

What about the “Cell density (figure 6c)” value [1, 16] of the same substance?
Its value is 95.

And the “Cell spreading area (figure 6b)” value [1, 16]?
Its value is 2200.

What about the “Cell density (figure 6c)” value [1, 17] of the same substance?
Its value is 89.

And the “Cell spreading area (figure 6b)” value [1, 17]?
Its value is 2110.4.

What about the “Cell density (figure 6c)” value [1, 18] of the same substance?
The value was 98.

And the “Cell spreading area (figure 6b)” value [1, 18]?
The value was 2163.

What about the “Cell density (figure 6c)” value [1, 19] of the same substance?
Its value is 90.

What about the “Cell spreading area (figure 6b)” value [1, 19] of the same substance?
Its value is 2145.

What about the “Cell density (figure 6c)” value [1, 20] of the same substance?
Its value is 90.

And the “Cell spreading area (figure 6b)” value [1, 20]?
Its value is 2068.

And the “Cell density (figure 6c)” value [1, 21]?
Its value is 83.

And the “Cell spreading area (figure 6b)” value [1, 21]?
The value was 1652.

And the “Cell density (figure 6c)” value [1, 22]?
The value was 81.

What about the “Cell spreading area (figure 6b)” value [1, 22] of the same substance?
The value was 1526.5.

And the “Cell density (figure 6c)” value [1, 23]?
The value was 76.

And the “Cell spreading area (figure 6b)” value [1, 23]?
Its value is 1753.

And the “Cell density (figure 6c)” value [1, 24]?
Its value is 75.

What about the “Cell spreading area (figure 6b)” value [1, 24] of the same substance?
Its value is 1586.3.

And the “Cell density (figure 6c)” value [1, 25]?
The value was 82.

And the “Cell spreading area (figure 6b)” value [1, 25]?
Its value is 1632.

And the “Cell density (figure 6c)” value [1, 26]?
The value was 72.

What about the “Cell spreading area (figure 6b)” value [1, 26] of the same substance?
Its value is 1552.3.

And the “Cell density (figure 6c)” value [1, 27]?
The value was 85.

And the “Cell spreading area (figure 6b)” value [1, 27]?
Its value is 1596.3.

What about the “Cell density (figure 6c)” value [1, 28] of the same substance?
The value was 68.

What about the “Cell spreading area (figure 6b)” value [1, 28] of the same substance?
The value was 1550.

What about the “Cell density (figure 6c)” value [1, 29] of the same substance?
Its value is 83.

And the “Cell spreading area (figure 6b)” value [1, 29]?
Its value is 1620.

And the “Cell density (figure 6c)” value [1, 30]?
Its value is 94.

And the “Cell spreading area (figure 6b)” value [1, 30]?
Its value is 2270.3.

What about the “Cell density (figure 6c)” value [1, 31] of the same substance?
Its value is 93.

And the “Cell spreading area (figure 6b)” value [1, 31]?
Its value is 1990.3.

And the “Cell density (figure 6c)” value [1, 32]?
The value was 84.

What about the “Cell spreading area (figure 6b)” value [1, 32] of the same substance?
Its value is 2011.4.

And the “Cell density (figure 6c)” value [1, 33]?
Its value is 93.

What about the “Cell spreading area (figure 6b)” value [1, 33] of the same substance?
The value was 1892.3.

And the “Cell density (figure 6c)” value [1, 34]?
Its value is 89.

What about the “Cell spreading area (figure 6b)” value [1, 34] of the same substance?
The value was 2309.4.

What about the “Cell density (figure 6c)” value [1, 35] of the same substance?
The value was 95.

What about the “Cell spreading area (figure 6b)” value [1, 35] of the same substance?
Its value is 2110.4.

What about the “Cell density (figure 6c)” value [1, 36] of the same substance?
Its value is 90.

And the “Cell spreading area (figure 6b)” value [1, 36]?
Its value is 2409.4.

What about the “Cell density (figure 6c)” value [1, 37] of the same substance?
The value was 89.

And the “Cell spreading area (figure 6b)” value [1, 37]?
Its value is 1909.

What about the “Cell density (figure 6c)” value [1, 38] of the same substance?
Its value is 90.

And the “Cell spreading area (figure 6b)” value [1, 38]?
Its value is 1893.

And the “Cell density (figure 6c)” value [1, 39]?
The value was 89.

What about the “Cell spreading area (figure 6b)” value [1, 39] of the same substance?
Its value is 2136.

And the “Cell density (figure 6c)” value [1, 40]?
The value was 90.

What about the “Cell spreading area (figure 6b)” value [1, 40] of the same substance?
Its value is 2153.4.

And the “Cell density (figure 6c)” value [1, 41]?
The value was 91.

And the “Cell spreading area (figure 6b)” value [1, 41]?
Its value is 2145.

What about the “Cell density (figure 6c)” value [1, 42] of the same substance?
Its value is 94.

What about the “Cell spreading area (figure 6b)” value [1, 42] of the same substance?
Its value is 2033.

And the “Cell density (figure 6c)” value [1, 43]?
Its value is 93.

What about the “Cell spreading area (figure 6b)” value [1, 43] of the same substance?
The value was 2312.4.

What about the “Cell density (figure 6c)” value [1, 44] of the same substance?
Its value is 78.

What about the “Cell spreading area (figure 6b)” value [1, 44] of the same substance?
The value was 2019.3.

And the “Cell density (figure 6c)” value [1, 45]?
Its value is 90.

What about the “Cell spreading area (figure 6b)” value [1, 45] of the same substance?
The value was 2036.

And the “Cell density (figure 6c)” value [1, 46]?
The value was 94.

What about the “Cell spreading area (figure 6b)” value [1, 46] of the same substance?
Its value is 2435.5.

And the “Cell density (figure 6c)” value [1, 47]?
The value was 91.

What about the “Cell spreading area (figure 6b)” value [1, 47] of the same substance?
The value was 2135.

What about the “Cell area of preosteoblast cells” value ([2]; cultured on modified surface for 3 h, replicate 1) of the same substance?
Its value is 2526.

And the “Cell area of preosteoblast cells” value ([2]; cultured on modified surface for 3 h, replicate 2)?
The value was 2456.

What about the “Cell area of preosteoblast cells” value ([2]; cultured on modified surface for 3 h, replicate 3) of the same substance?
Its value is 2659.

And the “Cell area of preosteoblast cells” value ([2]; cultured on modified surface for 24 h, replicate 1)?
Its value is 4026.

And the “Cell area of preosteoblast cells” value ([2]; cultured on modified surface for 24 h, replicate 2)?
The value was 4102.

And the “Cell area of preosteoblast cells” value ([2]; cultured on modified surface for 24 h, replicate 3)?
Its value is 4230.
